# Source: US12692254B2, “Benzimidazole inhibitors of PAD enzymes” (BRISTOL-MYERS SQUIBB COMPANY, priority 2018, dated 2026)
# Target: human PAD4 (hPAD4) (Homo sapiens, UniProt Q9UM07)
# Assay: RFMS human PAD4 functional assay (rapid-fire mass spectrum)
# Assay type: biochemical
# Settings: 5 nM hPAD4 enzyme, 250 μM BAEE, 50 μM Calcium; 30 min preincubation, 90 min reaction at 37° C.
# Procedure, shortened: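 PAD4 (10 nM) preincubated 30 min with compound (top final 50 μM), then BAEE substrate added in pH 7.5 HEPES buffer with DTT, 50 μM calcium, TPEN; 90 min at 37° C. After TCA quench, citrulline derivatized with phenyl glyoxal (4 mM final, 30 min, 37° C) and quantified by RapidFire MS against internal standard.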
# Sequence of human PAD4 (hPAD4) (Q9UM07 whole entry): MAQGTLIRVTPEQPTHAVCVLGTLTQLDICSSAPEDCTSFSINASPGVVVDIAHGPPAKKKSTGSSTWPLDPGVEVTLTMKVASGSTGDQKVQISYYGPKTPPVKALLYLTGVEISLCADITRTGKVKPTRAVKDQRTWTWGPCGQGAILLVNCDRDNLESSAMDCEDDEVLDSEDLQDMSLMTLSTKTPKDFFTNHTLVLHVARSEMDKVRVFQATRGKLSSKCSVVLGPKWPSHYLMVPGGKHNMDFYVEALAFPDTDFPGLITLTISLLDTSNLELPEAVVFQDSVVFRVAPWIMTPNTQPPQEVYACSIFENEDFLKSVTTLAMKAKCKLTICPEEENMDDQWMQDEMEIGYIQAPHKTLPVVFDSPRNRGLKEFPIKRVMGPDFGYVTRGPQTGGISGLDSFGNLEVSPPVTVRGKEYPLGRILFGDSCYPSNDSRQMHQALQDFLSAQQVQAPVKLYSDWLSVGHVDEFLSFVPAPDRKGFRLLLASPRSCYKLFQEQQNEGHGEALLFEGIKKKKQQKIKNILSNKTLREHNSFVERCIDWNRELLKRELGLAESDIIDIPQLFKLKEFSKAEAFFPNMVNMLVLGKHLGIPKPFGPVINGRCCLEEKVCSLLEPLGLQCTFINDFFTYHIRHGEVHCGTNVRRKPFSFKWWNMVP
row,SMILES,IC50
1,"COc1cc(C(=O)N2CC3CCC2[C@@H]3N)cc2nc(-c3cc4cccnc4n3CC3CC3)n(CC3CN(C(=O)c4cccc(F)c4F)C3)c12 (stereo partly drawn) [Example 423, (7R)-2-{2-[1-(cyclopropylmethyl)-1H-pyrrolo[2,3-b]pyridin-2-yl]-1-{[1-(2,3-difluorobenzoyl)azetidin-3-yl]methyl}-7-methoxy-1H-1,3-benzodiazole-5-carbonyl}-2-azabicyclo[2.2.1]heptan-7-amine]",23 nM
2,"COc1cncc(-n2cc(Cn3c(-c4cc5cccnc5n4CC4CC4)nc4cc(C(=O)N5CC6CCC5[C@@H]6N)cc(OC)c43)cn2)c1 (stereo partly drawn) [Example 352, (7R)-2-{2-[1-(cyclopropylmethyl)-1H-pyrrolo[2,3-b]pyridin-2-yl]-7-methoxy-1-{[1-(5-methoxypyridin-3-yl)-1H-pyrazol-4-yl]methyl}-1H-1,3-benzodiazole-5-carbonyl}-2-azabicyclo[2.2.1]heptan-7-amine]",19 nM
3,"COc1cc(C(=O)N2C[C@H]3CC[C@@H]2[C@@H]3N)cc2nc(-c3cc4cccnc4n3CC3CC3)n(C3CN(c4nccc(C(=O)O)n4)C3)c12 [Example 72, 2-(3-{5-[(1R,4R,7R)-7-amino-2-azabicyclo[2.2.1]heptane-2-carbonyl]-2-[1-(cyclopropylmethyl)-1H-pyrrolo[2,3-b]pyridin-2-yl]-7-methoxy-1H-1,3-benzodiazol-1-yl}azetidin-1-yl)pyrimidine-4-carboxylic acid]",113 nM
4,"CCc1ccccc1-c1nc2cc(C(=O)N3C[C@H]4CC[C@@H]3[C@@H]4N)cc(OC)c2n1CC1CN(c2cncc(C#N)c2)C1 [Example 312, 5-[3-({5-[(1R,4R,7R)-7-amino-2-azabicyclo[2.2.1]heptane-2-carbonyl]-2-(2-ethylphenyl)-7-methoxy-1H-1,3-benzodiazol-1-yl}methyl)azetidin-1-yl]pyridine-3-carbonitrile]",380 nM
5,"COc1cc(C(=O)N2C[C@H]3CC[C@@H]2[C@@H]3N)cc2nc(-c3cc4cccnc4n3CC3CC3)n(C3CN(c4ccncn4)C3)c12 [Example 86, (1R,4R,7R)-2-{2-[1-(cyclopropylmethyl)-1H-pyrrolo[2,3-b]pyridin-2-yl]-7-methoxy-1-[1-(pyrimidin-4-yl)azetidin-3-yl]-1H-1,3-benzodiazole-5-carbonyl}-2-azabicyclo[2.2.1]heptan-7-amine]",1680 nM
6,"COc1cc(C(=O)N2C[C@H]3CC[C@@H]2[C@@H]3N)cc2nc(-c3cc4cccnc4n3CC3CC3)n(CC3CN(c4ccnc(C#N)c4)C3)c12 [Example 31, 4-[3-({5-[(1R,4R,7R)-7-amino-2-azabicyclo[2.2.1]heptane-2-carbonyl]-2-[1-(cyclopropylmethyl)-1H-pyrrolo[2,3-b]pyridin-2-yl]-7-methoxy-1H-1,3-benzodiazol-1-yl}methyl)azetidin-1-yl]pyridine-2-carbonitrile]",85 nM
7,"COc1cc(C(=O)N2C[C@H]3CC[C@@H]2[C@@H]3N)cc2nc(-c3cc4cccnc4n3CC3CC3)n(CC3CN(c4ccccc4)C3)c12 [Example 50, (1R,4R,7R)-2-{2-[1-(cyclopropylmethyl)-1H-pyrrolo[2,3-b]pyridin-2-yl]-7-methoxy-1-[(1-phenylazetidin-3-yl)methyl]-1H-1,3-benzodiazole-5-carbonyl}-2-azabicyclo[2.2.1]heptan-7-amine]",141 nM
8,"COc1cc(C(=O)N2C[C@H]3CC[C@@H]2[C@@H]3N)cc2nc(-c3cc4cccnc4n3CC3CC3)n(C[C@H]3CCN(c4cncc(C#N)c4)C3)c12 [Example 195, 5-[(3S)-3-({5-[(1R,4R,7R)-7-amino-2-azabicyclo[2.2.1]heptane-2-carbonyl]-2-[1-(cyclopropylmethyl)-1H-pyrrolo[2,3-b]pyridin-2-yl]-7-methoxy-1H-1,3-benzodiazol-1-yl}methyl)pyrrolidin-1-yl]pyridine-3-carbonitrile]",14 nM
9,"COc1cc(C(=O)N2C[C@H]3CC[C@@H]2[C@@H]3N)cc2nc(-c3cc4ccccc4n3CC3CC3)n(CC3CN(C(=O)c4ccc(C#N)c(F)c4)C3)c12 [Example 135, 4-[3-({5-[(1R,4R,7R)-7-amino-2-azabicyclo[2.2.1]heptane-2-carbonyl]-2-[1-(cyclopropylmethyl)-1H-indol-2-yl]-7-methoxy-1H-1,3-benzodiazol-1-yl}methyl)azetidine-1-carbonyl]-2-fluorobenzonitrile]",8 nM
10,"COc1cc(C(=O)N2C[C@H]3CC[C@@H]2[C@@H]3N)cc2nc(-c3cc4cccnc4n3CC3CC3)n(C[C@@H]3CCN(c4cncc(C#N)n4)C3)c12 [Example 207, 6-[(3R)-3-({5-[(1R,4R,7R)-7-amino-2-azabicyclo[2.2.1]heptane-2-carbonyl]-2-[1-(cyclopropylmethyl)-1H-pyrrolo[2,3-b]pyridin-2-yl]-7-methoxy-1H-1,3-benzodiazol-1-yl}methyl)pyrrolidin-1-yl]pyrazine-2-carbonitrile]",57 nM
11,"COc1cc(C(=O)N2CC3CCC2[C@@H]3N)cc2nc(-c3cc4cccnc4n3CC3CC3)n([C@H]3C[C@H](NC(=O)c4cc[nH]c(=O)c4)C3)c12 (stereo partly drawn) [Example 299, 2-oxo-N-[(1r,3r)-3-{5-[(1R,4R,7R)-7-amino-2-azabicyclo[2.2.1]heptane-2-carbonyl]-2-[1-(cyclopropylmethyl)-1H-pyrrolo[2,3-b]pyridin-2-yl]-7-methoxy-1H-1,3-benzodiazol-1-yl}cyclobutyl]-1,2-dihydropyridine-4-carboxamide]",603 nM
12,"COc1cc(C(=O)N2C[C@H]3CC[C@@H]2[C@@H]3N)cc2nc(-c3cc4cccnc4n3CC3CC3)n(CC3CN(C(=O)c4ccncc4)C3)c12 [Example 117, (1R,4R,7R)-2-{2-[1-(cyclopropylmethyl)-1H-pyrrolo[2,3-b]pyridin-2-yl]-7-methoxy-1-{[1-(pyridine-4-carbonyl)azetidin-3-yl]methyl}-1H-1,3-benzodiazole-5-carbonyl}-2-azabicyclo[2.2.1]heptan-7-amine]",66 nM
13,"COc1cc(C(=O)N2CC3CCC2[C@@H]3N)cc2nc(-c3cc4cccnc4n3CC3CC3)n(CC3CN(C(=O)c4ccc(C#N)cc4F)C3)c12 (stereo partly drawn) [Example 454, 4-[3-({5-[(7R)-7-amino-2-azabicyclo[2.2.1]heptane-2-carbonyl]-2-(1-(cyclopropylmethyl)-1H-pyrrolo[2,3-b]pyridin-2-yl]-7-methoxy-1H-1,3-benzodiazol-1-yl}methyl)azetidine-1-carbonyl]-3-fluorobenzointrile]",53 nM

# Now from value to molecule:
row,IC50,SMILES
1,49 nM,"COc1cc(C(=O)N2C[C@H](N)C[C@@H](F)C2)cc2nc(-c3cc4ccccc4n3CC3CC3)n(Cc3cnn(-c4ccccc4)c3)c12 [Example 261, (3R,5R)-1-{2-[1-(cyclopropylmethyl)-1H-indol-2-yl]-7-methoxy-1-[(1-phenyl-1H-pyrazol-4-yl)methyl]-1H-1,3-benzodiazole-5-carbonyl}-5-fluoropiperidin-3-amine]"
2,23 nM,"COc1cc(C(=O)N2CC3CCC2[C@@H]3N)cc2nc(-c3cc4ccc(Br)cc4n3CC3CC3)n(Cc3cnn(C)c3)c12 (stereo partly drawn) [Example 522, (7R)-2-{2-[6-bromo-1-(cyclopropylmethyl)-1H-indol-2-yl]-7-methoxy-1-[(1-methyl-1H-pyrazol-4-yl)methyl]-1H-1,3-benzodiazole-5-carbonyl}-2-azabicyclo[2.2.1]heptan-7-amine]"
3,65 nM,"COc1cc(C(=O)N2C[C@H]3CC[C@@H]2[C@@H]3N)cc2nc(-c3cc4ccccc4n3CC3CC3)n(Cc3ccnn3C)c12 [Example 265, (1R,4R,7R)-2-{2-[1-(cyclopropylmethyl)-1H-indol-2-yl]-7-methoxy-1-[(1-methyl-1H-pyrazol-5-yl)methyl]-1H-1,3-benzodiazole-5-carbonyl}-2-azabicyclo[2.2.1]heptan-7-amine]"
4,46 nM,"CCn1cc(Cn2c(-c3cc4ccccc4n3CC3CC3)nc3cc(C(=O)N4C[C@H](N)C[C@@H](F)C4)cc(OC)c32)cn1 [Example 487, (3R,5R)-1-{2-[1-(cyclopropylmethyl)-1H-indol-2-yl]-1-[(1-ethyl-1H-pyrazol-4-yl)methyl]-7-methoxy-1H-1,3-benzodiazole-5-carbonyl}-5-fluoropiperidin-3-amine]"
5,298 nM,"COc1cc(C(=O)N2C[C@H](N)C[C@@H](F)C2)cc2nc(-c3cc4ccccc4n3CC3CC3)n(Cc3cc(C)nn3C)c12 [Example 276, (3R,5R)-1-{2-[1-(cyclopropylmethyl)-1H-indol-2-yl]-1-[(1,3-dimethyl-1H-pyrazol-5-yl)methyl]-7-methoxy-1H-1,3-benzodiazole-5-carbonyl}-5-fluoropiperidin-3-amine]"
6,35 nM,"COc1cc(C(=O)N2C[C@H](N)C[C@@H](F)C2)cc2nc(-c3cc4ccccc4n3CC3CC3)n(CCC3CCS(=O)(=O)CC3)c12 [Example 249, ((3R,5R)-3-amino-5-fluoropiperidin-1-yl)(2-(1-(cyclopropylmethyl)-1H-indol-2-yl)-1-(2-(1,1-dioxidotetrahydro-2H-thiopyran-4-yl)ethyl)-7-methoxy-1H-benzo[d]imidazol-5-yl)methanone]"
7,20 nM,"CCn1cc(Cn2c(-c3cc4ccccc4n3CC3CC3)nc3cc(C(=O)N4CC5CCC4[C@@H]5N)cc(OC)c32)cn1 (stereo partly drawn) [Example 481, (7R)-2-{2-[1-(cyclopropylmethyl)-1H-indol-2-yl]-1-[(1-ethyl-1H-pyrazol-4-yl)methyl]-7-methoxy-1H-1,3-benzodiazole-5-carbonyl}-2-azabicyclo[2.2.1]heptan-7-amine]"
8,47 nM,"COc1cc(C(=O)N2C[C@H](N)C[C@@H](F)C2)cc2nc(-c3cc4cccnc4n3CC3CC3)n(Cc3cnn(-c4cncc(C#N)c4)c3)c12 [Example 391, 5-[4-({5-[(3R,5R)-3-amino-5-fluoropiperidine-1-carbonyl]-2-[1-(cyclopropylmethyl)-1H-pyrrolo[2,3-b]pyridin-2-yl]-7-methoxy-1H-1,3-benzodiazol-1-yl}methyl)-1H-pyrazol-1-yl]pyridine-3-carbonitrile]"
